Results from patent US12077503B2, “Substituted cyclic amides and their use as herbicides” (FMC CORPORATION, priority 2015, dated 2024).

Experiments:
Format in all cases: in vivo
[1] = tested on: barnyardgrass (Echinochloa crus-galli); experiment: Test G Pre-Emergence Protocol; settings: Echinochloa crus-galli, pre-emergence, 312 h, evaluated after 13 days; for pest or weed control at 15.625 g/ha: 15.625 g ai/ha, read-out: Barnyard grass damage rating (100=total damage to plant; 0=no damage to plant); for pest or weed control at 62.5 g/ha: 62.5 g ai/ha, 100=total damage to plant, 0=no damage to plant, read-out: plant damage rating, Barnyardgrass; for pest or weed control at 250 g/ha: 250 g ai/ha, read-out: Barnyardgrass damage rating (100=total damage to plant; 0=no damage to plant)
How it was run: (§1)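 Pre-emergence spray, 15.625/62.5/250 g/ha, vehicle acetone:water 50:50 + 0.5% Tween 20, applied 1 d after sowing. Glasshouse 24/16° C, 14 h light, 65% RH, watered twice daily. Visual damage rating at 13 d, 0–100 scale.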

corn (Zea mays) [2] = experiment: Test G Pre-Emergence Protocol; settings: Zea mays, pre-emergence, 312 h, evaluated after 13 days; for plant injury at 15.625 g/ha: 15.625 g ai/ha; for plant injury at 15.625 g/ha / plant injury at 250 g/ha: read-out: Corn damage rating (100=total damage to plant; 0=no damage to plant); for plant injury at 62.5 g/ha: 62.5 g ai/ha, 100=total damage to plant, 0=no damage to plant, read-out: plant damage rating, Corn; for plant injury at 250 g/ha: 250 g ai/ha
How it was run: as §1

[3] = tested on: giant foxtail (Setaria faberi); experiment: Test G Pre-Emergence Protocol; settings: Setaria faberi, pre-emergence, 312 h, evaluated after 13 days; for pest or weed control at 15.625 g/ha: 15.625 g ai/ha; for pest or weed control at 15.625 g/ha / pest or weed control at 250 g/ha: read-out: Foxtail, Giant damage rating (100=total damage to plant; 0=no damage to plant); for pest or weed control at 62.5 g/ha: 62.5 g ai/ha, 100=total damage to plant, 0=no damage to plant, read-out: plant damage rating, Foxtail, Giant; for pest or weed control at 250 g/ha: 250 g ai/ha
How it was run: as §1

[4] = tested on: ivy-leaved morning glory (Ipomoea hederacea); experiment: Test G Pre-Emergence Protocol; settings: Ipomoea, pre-emergence, 312 h, evaluated after 13 days; for pest or weed control at 62.5 g/ha: 62.5 g ai/ha, 100=total damage to plant, 0=no damage to plant, read-out: plant damage rating, Morningglory, Ivy-leaved; for pest or weed control at 250 g/ha: 250 g ai/ha, read-out: Morningglory, Ivy-leaved damage rating (100=total damage to plant; 0=no damage to plant)
How it was run: as §1

[5] = tested on: redroot pigweed (Amaranthus retroflexus); experiment: Test G Pre-Emergence Protocol; settings: Amaranthus retroflexus, pre-emergence, 312 h, evaluated after 13 days; for pest or weed control at 15.625 g/ha: 15.625 g ai/ha; for pest or weed control at 15.625 g/ha / pest or weed control at 250 g/ha: read-out: Pigweed, Redroot damage rating (100=total damage to plant; 0=no damage to plant); for pest or weed control at 62.5 g/ha: 62.5 g ai/ha, 100=total damage to plant, 0=no damage to plant, read-out: plant damage rating, Pigweed, Redroot; for pest or weed control at 250 g/ha: 250 g ai/ha
How it was run: as §1

[6] = tested on: velvetleaf (Abutilon theophrasti); experiment: Test G Pre-Emergence Protocol; settings: Abutilon theophrasti, pre-emergence, 312 h, evaluated after 13 days; for pest or weed control at 15.625 g/ha: 15.625 g ai/ha; for pest or weed control at 15.625 g/ha / pest or weed control at 250 g/ha: read-out: Velvetleaf damage rating (100=total damage to plant; 0=no damage to plant); for pest or weed control at 62.5 g/ha: 62.5 g ai/ha, 100=total damage to plant, 0=no damage to plant, read-out: plant damage rating, Velvetleaf; for pest or weed control at 250 g/ha: 250 g ai/ha
How it was run: as §1

[7] = tested on: barnyardgrass (Echinochloa crus-galli); experiment: Test G Post-Emergence Protocol; settings: Echinochloa crus-galli, post-emergence, 312 h; for pest or weed control at 15.625 g/ha: 15.625 g ai/ha, evaluated after 13 days (100=total damage to plant; 0=no damage to plant), read-out: Barnyardgrass damage rating; for pest or weed control at 62.5 g/ha: 62.5 g ai/ha, read-out: Barnyardgrass damage rating (100=total damage to plant; 0=no damage to plant); for pest or weed control at 62.5 g/ha / pest or weed control at 250 g/ha: evaluated after 13 days; for pest or weed control at 250 g/ha: 250 g ai/ha, read-out: damage to plant, Barnyardgrass (100=total damage to plant; 0=no damage to plant)
How it was run: (§2)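 Scores run 0 (no damage) to 100 (total damage) and were taken 13 days after spraying. Plants had been raised in pots for 8 days under glasshouse control (24/16 °C, 14 h photoperiod, 65% humidity) and then treated at 15.625, 62.5 or 250 g/ha.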

corn (Zea mays) [8] = experiment: Test G Post-Emergence Protocol; settings: Zea mays, post-emergence, 312 h; for plant injury at 15.625 g/ha: 15.625 g ai/ha, evaluated after 13 days (100=total damage to plant; 0=no damage to plant), read-out: Corn damage rating; for plant injury at 62.5 g/ha: 62.5 g ai/ha, read-out: Corn damage rating (100=total damage to plant; 0=no damage to plant); for plant injury at 62.5 g/ha / plant injury at 250 g/ha: evaluated after 13 days; for plant injury at 250 g/ha: 250 g ai/ha, read-out: damage to plant, Corn (100=total damage to plant; 0=no damage to plant)
How it was run: as §2

[9] = tested on: giant foxtail (Setaria faberi); experiment: Test G Post-Emergence Protocol; settings: Setaria faberi, post-emergence, 312 h; for pest or weed control at 15.625 g/ha: 15.625 g ai/ha, evaluated after 13 days (100=total damage to plant; 0=no damage to plant), read-out: Foxtail, Giant damage rating; for pest or weed control at 62.5 g/ha: 62.5 g ai/ha, read-out: Foxtail, Giant damage rating (100=total damage to plant; 0=no damage to plant); for pest or weed control at 62.5 g/ha / pest or weed control at 250 g/ha: evaluated after 13 days; for pest or weed control at 250 g/ha: 250 g ai/ha, read-out: damage to plant, Foxtail, Giant (100=total damage to plant; 0=no damage to plant)
How it was run: as §2

[10] = tested on: ivy-leaved morning glory (Ipomoea hederacea); experiment: Test G Post-Emergence Protocol; settings: Ipomoea, post-emergence, 312 h; for pest or weed control at 15.625 g/ha: 15.625 g ai/ha, evaluated after 13 days (100=total damage to plant; 0=no damage to plant), read-out: Morningglory, Ivy-leaved damage rating; for pest or weed control at 62.5 g/ha: 62.5 g ai/ha, read-out: Morningglory, Ivy-leaved damage rating (100=total damage to plant; 0=no damage to plant); for pest or weed control at 62.5 g/ha / pest or weed control at 250 g/ha: evaluated after 13 days; for pest or weed control at 250 g/ha: 250 g ai/ha, read-out: damage to plant, Morningglory, Ivy-leaved (100=total damage to plant; 0=no damage to plant)
How it was run: as §2

[11] = tested on: redroot pigweed (Amaranthus retroflexus); experiment: Test G Post-Emergence Protocol; settings: Amaranthus retroflexus, post-emergence, 312 h; for pest or weed control at 15.625 g/ha: 15.625 g ai/ha, evaluated after 13 days (100=total damage to plant; 0=no damage to plant), read-out: Pigweed, Redroot damage rating; for pest or weed control at 62.5 g/ha: 62.5 g ai/ha, read-out: Pigweed, Redroot damage rating (100=total damage to plant; 0=no damage to plant); for pest or weed control at 62.5 g/ha / pest or weed control at 250 g/ha: evaluated after 13 days; for pest or weed control at 250 g/ha: 250 g ai/ha, read-out: damage to plant, Pigweed, Redroot (100=total damage to plant; 0=no damage to plant)
How it was run: as §2

[12] = tested on: velvetleaf (Abutilon theophrasti); experiment: Test G Post-Emergence Protocol; settings: Abutilon theophrasti, post-emergence, 312 h; for pest or weed control at 15.625 g/ha: 15.625 g ai/ha, evaluated after 13 days (100=total damage to plant; 0=no damage to plant), read-out: Velvetleaf damage rating; for pest or weed control at 62.5 g/ha: 62.5 g ai/ha, read-out: Velvetleaf damage rating (100=total damage to plant; 0=no damage to plant); for pest or weed control at 62.5 g/ha / pest or weed control at 250 g/ha: evaluated after 13 days; for pest or weed control at 250 g/ha: 250 g ai/ha, read-out: damage to plant, Velvetleaf (100=total damage to plant; 0=no damage to plant)
How it was run: as §2

SMILES	pest or weed control at 15.625 g/ha [1] [%]	pest or weed control at 62.5 g/ha [1] [%]	pest or weed control at 250 g/ha [1] [%]	plant injury at 15.625 g/ha (corn (Zea mays) [2]) [%]	plant injury at 62.5 g/ha (corn (Zea mays) [2]) [%]	plant injury at 250 g/ha (corn (Zea mays) [2]) [%]	pest or weed control at 15.625 g/ha [3] [%]	pest or weed control at 62.5 g/ha [3] [%]	pest or weed control at 250 g/ha [3] [%]	pest or weed control at 62.5 g/ha [4] [%]	pest or weed control at 250 g/ha [4] [%]	pest or weed control at 15.625 g/ha [5] [%]	pest or weed control at 62.5 g/ha [5] [%]	pest or weed control at 250 g/ha [5] [%]	pest or weed control at 15.625 g/ha [6] [%]	pest or weed control at 62.5 g/ha [6] [%]	pest or weed control at 250 g/ha [6] [%]	pest or weed control at 15.625 g/ha [7] [%]	pest or weed control at 62.5 g/ha [7] [%]	pest or weed control at 250 g/ha [7] [%]	other results
CN1C[C@H](c2ccc(C(F)(F)F)cc2)[C@@H](C(=O)Nc2ccc(C(F)(F)F)cc2F)C1=O (racemic) [Compound 1426]	0	10	20	0	0	0	0	50	70	0	0	0	0	0	0	0	0	0	0	20	pest or weed control at 15.625 g/ha ([4]; 15.625 g ai/ha, read-out: Morning-glory, Ivy-leaved damage rating (100=total damage to plant; 0=no damage to plant)): 0%; plant injury at 15.625 g/ha (corn (Zea mays) [8]): 10%; plant injury at 62.5 g/ha (corn (Zea mays) [8]): 0%; plant injury at 250 g/ha (corn (Zea mays) [8]): 10%; pest or weed control at 15.625 g/ha [9]: 0%; pest or weed control at 62.5 g/ha [9]: 0%; pest or weed control at 250 g/ha [9]: 40%; pest or weed control at 15.625 g/ha [10]: 0%; pest or weed control at 62.5 g/ha [10]: 0%; pest or weed control at 250 g/ha [10]: 0%; pest or weed control at 15.625 g/ha [11]: 0%; pest or weed control at 62.5 g/ha [11]: 10%; pest or weed control at 250 g/ha [11]: 10%; pest or weed control at 15.625 g/ha [12]: 0%; pest or weed control at 62.5 g/ha [12]: 0%; pest or weed control at 250 g/ha [12]: 0%
CN1C[C@@H](c2ccc(C(F)(F)F)cc2)[C@H](C(=O)Nc2ccc(Cl)nn2)C1=O (racemic) [Compound 1561]	30	50	80	10	0	20	30	60	70	0	20	0	20	30	0	0	10	0	20	50	plant injury at 15.625 g/ha (corn (Zea mays) [8]): 0%; plant injury at 62.5 g/ha (corn (Zea mays) [8]): 0%; plant injury at 250 g/ha (corn (Zea mays) [8]): 50%; pest or weed control at 15.625 g/ha [9]: 0%; pest or weed control at 62.5 g/ha [9]: 10%; pest or weed control at 250 g/ha [9]: 60%; pest or weed control at 15.625 g/ha [10]: 0%; pest or weed control at 62.5 g/ha [10]: 10%; pest or weed control at 250 g/ha [10]: 60%; pest or weed control at 15.625 g/ha [11]: 0%; pest or weed control at 62.5 g/ha [11]: 20%; pest or weed control at 250 g/ha [11]: 30%; pest or weed control at 15.625 g/ha [12]: 0%; pest or weed control at 62.5 g/ha [12]: 40%; pest or weed control at 250 g/ha [12]: 20%
